Reference: ChEMBL document CHEMBL4706511, “Structure-based design, synthesis and bioactivity evaluation of macrocyclic inhibitors of mutant isocitrate dehydrogenase 2 (IDH2) displaying activity in acute myeloid leukemia cells” (Eur J Med Chem, 2020)
Structures can show the parent of a compound that is named as a salt.

Key:
[1] = target: T1, Isocitrate dehydrogenase [NADP], mitochondrial (Homo sapiens, UniProt P48735); assay: Inhibition of wild type IDH2 (unknown origin) assessed as reduction in NADPH production using sodium(D)-isocitrate and NADP as substrate preincubated with enzyme for 15 mins followed by substrate addition by fluorescence based assay
T1 sequence (P48735 whole entry): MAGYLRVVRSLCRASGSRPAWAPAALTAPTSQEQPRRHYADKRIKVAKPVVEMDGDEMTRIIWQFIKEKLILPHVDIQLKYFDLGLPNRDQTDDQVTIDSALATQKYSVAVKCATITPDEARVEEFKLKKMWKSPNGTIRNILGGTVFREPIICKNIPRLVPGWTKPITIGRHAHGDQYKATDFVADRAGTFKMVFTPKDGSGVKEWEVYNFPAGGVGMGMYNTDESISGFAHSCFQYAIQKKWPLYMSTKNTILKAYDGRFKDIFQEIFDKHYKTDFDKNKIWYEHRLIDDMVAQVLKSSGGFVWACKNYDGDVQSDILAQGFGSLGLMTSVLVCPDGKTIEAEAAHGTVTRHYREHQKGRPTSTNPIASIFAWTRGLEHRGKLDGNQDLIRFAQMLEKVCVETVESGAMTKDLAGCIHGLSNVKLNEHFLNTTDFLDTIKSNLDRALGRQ

[2] = target: Isocitrate dehydrogenase [NADP], mitochondrial (Homo sapiens, UniProt P48735, R172K); assay: Inhibition of IDH2 R172K mutant (unknown origin) assessed as reduction in NADPH consumption using alpha-ketoglutarate and NADPH as substrate preincubated with enzyme for 15 mins followed by substrate addition by fluorescence based assay
[3] = target: Isocitrate dehydrogenase [NADP], mitochondrial (Homo sapiens, UniProt P48735, R140Q); assay: Inhibition of IDH2 R140Q mutant (unknown origin) assessed as reduction in NADPH consumption using alpha-ketoglutarate and NADPH as substrate preincubated with enzyme for 15 mins followed by substrate addition by fluorescence based assay
TF-1 = assay: Cytotoxicity aganist human TF-1 cells harboring IDH2 mutant; type: functional, cell-based

Chain of Isocitrate dehydrogenase [NADP], mitochondrial (Homo sapiens, UniProt P48735, R172K) (P48735 40-452 R172K limits assumed): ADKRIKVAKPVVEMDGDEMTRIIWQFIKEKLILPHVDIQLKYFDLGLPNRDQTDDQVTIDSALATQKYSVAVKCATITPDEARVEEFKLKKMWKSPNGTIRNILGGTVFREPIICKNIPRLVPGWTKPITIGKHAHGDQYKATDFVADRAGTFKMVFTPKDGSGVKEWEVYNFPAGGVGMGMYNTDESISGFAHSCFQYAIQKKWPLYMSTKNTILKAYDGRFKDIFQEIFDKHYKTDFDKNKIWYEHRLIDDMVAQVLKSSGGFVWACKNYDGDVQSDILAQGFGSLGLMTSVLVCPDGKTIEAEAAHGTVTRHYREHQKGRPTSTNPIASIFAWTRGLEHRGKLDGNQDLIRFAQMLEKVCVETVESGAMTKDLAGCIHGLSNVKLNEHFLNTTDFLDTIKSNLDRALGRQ
Chain of Isocitrate dehydrogenase [NADP], mitochondrial (Homo sapiens, UniProt P48735, R140Q) (P48735 40-452 R140Q limits assumed): as the sequence (P48735 40-452 R172K limits assumed) above, with R101Q, K133R counted along it

Row | SMILES | IC50 [1] [µM] | IC50 [2] [µM] | IC50 [3] [µM] | IC50 (TF-1) [µM]
1 | Fc1cc2cc(c1)Nc1nc(nc(-c3cccc(C(F)(F)F)n3)n1)NCCOC/C=C\C2 | > 20 | 0.688 | 0.0295 | 
2 | O=C1OCCCCCNc2nc(nc(-c3cccc(C(F)(F)F)n3)n2)Nc2cc1cc(C(F)(F)F)c2 | > 20 | 0.314 | 0.105 | 
3 | CC(C)(O)CNc1nc(Nc2ccnc(C(F)(F)F)c2)nc(-c2cccc(C(F)(F)F)n2)n1 [ENASIDENIB] | > 20 | 0.269 | 0.0359 | 
4 | CC(C)(O)CNc1nc(Nc2ccccc2)nc(-c2cccc(C(F)(F)F)n2)n1 | > 20 | 1.43 | 0.0982 | 
5 | FC(F)(F)c1cccc(-c2nc3nc(n2)Nc2cc(Cl)cc(c2)C/C=C\COCCN3)n1 | > 20 | 0.417 | 0.036 | 
6 | CC1CNc2nc(nc(-c3cccc(C(F)(F)F)n3)n2)Nc2cc(cc(C(F)(F)F)c2)C/C=C\CO1 (stereo unspecified) | > 20 |  | 0.267 | 
7 | FC(F)(F)c1cc2cc(c1)Nc1nc(nc(-c3cccc(C(F)(F)F)n3)n1)NCCCCC2 | > 20 | > 10 | 1.24 | > 10
8 | FC(F)(F)c1cc2cc(c1)Nc1nc(nc(-c3cccc(C(F)(F)F)n3)n1)NCCCCC/C=C/C2 | > 20 | 0.0927 | 0.0376 | 
9 | Cc1cc2cc(c1)Nc1nc(nc(-c3cccc(C(F)(F)F)n3)n1)NCCOC/C=C\C2 | > 20 | 0.83 | 0.0379 | 
10 | O=C1NCCCCNc2nc(nc(-c3cccc(C(F)(F)F)n3)n2)Nc2cc1cc(C(F)(F)F)c2 | > 20 | > 10 | 0.699 | 
11 | C=CCOC(C)(C)CNc1nc(Nc2cccc(C(F)(F)F)c2)nc(-c2cccc(C(F)(F)F)n2)n1 | > 20 | 0.0155 | 0.0328 | 
12 | CC1(C)CNc2nc(nc(-c3cccc(C(F)(F)F)n3)n2)Nc2cc(cc(C(F)(F)F)c2)OCCCO1 | > 20 | 0.0274 | 0.0793 | 
13 | CC(C)(O)CNc1nc(Nc2ccnc(C(F)(F)F)c2)nc(-c2cccc(C(F)(F)F)n2)n1 [ENASIDENIB MESYLATE] |  | 0.319 | 0.124 | 
14 | Fc1cc2cc(c1)Nc1nc(nc(-c3cccc(C(F)(F)F)n3)n1)NCCOCCCC2 | > 20 | 0.881 | 0.0186 | 
15 | FC(F)(F)c1cc2cc(c1)Nc1nc(nc(-c3cccc(C(F)(F)F)n3)n1)NCCCC/C=C/C2 | > 20 | 0.0469 | 0.0376 | 
16 | CC(C)(O)CNc1nc(Nc2ccncc2)nc(-c2cccc(C(F)(F)F)n2)n1 | > 20 | > 10 | 0.663 | > 10
17 | FC(F)(F)c1cccc(-c2nc3nc(n2)Nc2cc(Cl)cc(c2)CCCCOCCN3)n1 | > 20 | 0.443 | 0.0122 | 
18 | CC1CNc2nc(nc(-c3cccc(C(F)(F)F)n3)n2)Nc2cc(cc(C(F)(F)F)c2)CCCCO1 (stereo unspecified) | > 20 | 0.0177 | 0.0456 | 
19 | CC1(C)CCNc2nc(nc(-c3cccc(C(F)(F)F)n3)n2)Nc2cc(cc(C(F)(F)F)c2)CCCCO1 | > 20 | 0.455 | 0.182 | 
20 | CC1(C)CNc2nc(nc(-c3cccc(C(F)(F)F)n3)n2)Nc2cc(cc(C(F)(F)F)c2)C/C=C\CO1 | > 20 |  | 0.396 | 
21 | Cc1cc2cc(c1)Nc1nc(nc(-c3cccc(C(F)(F)F)n3)n1)NCCOCCCC2 | > 20 | 1.32 | 0.0222 | 
22 | FC(F)(F)c1cc2cc(c1)OCCCCCNc1nc(nc(-c3cccc(C(F)(F)F)n3)n1)N2 | > 20 | 0.116 | 0.051 | 
23 | FC(F)(F)c1cc2cc(c1)OC/C=C\CCCNc1nc(nc(-c3cccc(C(F)(F)F)n3)n1)N2 | > 20 | 0.0503 | 0.0174 | 
24 | FC(F)(F)c1cc2cc(c1)Nc1nc(nc(-c3cccc(C(F)(F)F)n3)n1)NCCCCCCC2 | > 20 | 0.0301 | 0.0199 | 
